Patent publication US10584128B2, “Bicyclic dihydropyrimidine-carboxamide derivatives as Rho-Kinase inhibitors” (CHIESI FARMACEUTICI S.p.A., priority 2016, dated 2020)

Legend:
Rho kinase 2 = Rho kinase 2 (Homo sapiens, UniProt O75116); experiment: In vitro Rho kinase inhibitory activity assay (ADP-Glo kit, Myelin Basic Protein substrate); type: biochemical; conditions: 10 μM ATP, 25° C., read-out: ROCK2 inhibitory activity (Ki, range of activity)
Method in brief: (§1)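 ADP-Glo luminescence assay at 25 °C in 40 mM Tris pH 7.5, 20 mM MgCl2, 0.1 mg/ml BSA, 50 μM DTT, with 2.5 μM myelin basic protein, 10 μM ATP and 1% DMSO. Compound and ROCK1 or ROCK2 were preincubated 30 min, then reacted 1 h. IC50 came from a sigmoidal fit; Ki via Cheng-Prusoff.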

Rho kinase 1 = Rho kinase 1 (Homo sapiens, UniProt Q13464); experiment: as above; type: biochemical; conditions: 10 μM ATP, 25° C., read-out: ROCK1 inhibitory activity (Ki, range of activity)
Method in brief: as §1

Rho kinase 2, sequence (O75116 whole entry): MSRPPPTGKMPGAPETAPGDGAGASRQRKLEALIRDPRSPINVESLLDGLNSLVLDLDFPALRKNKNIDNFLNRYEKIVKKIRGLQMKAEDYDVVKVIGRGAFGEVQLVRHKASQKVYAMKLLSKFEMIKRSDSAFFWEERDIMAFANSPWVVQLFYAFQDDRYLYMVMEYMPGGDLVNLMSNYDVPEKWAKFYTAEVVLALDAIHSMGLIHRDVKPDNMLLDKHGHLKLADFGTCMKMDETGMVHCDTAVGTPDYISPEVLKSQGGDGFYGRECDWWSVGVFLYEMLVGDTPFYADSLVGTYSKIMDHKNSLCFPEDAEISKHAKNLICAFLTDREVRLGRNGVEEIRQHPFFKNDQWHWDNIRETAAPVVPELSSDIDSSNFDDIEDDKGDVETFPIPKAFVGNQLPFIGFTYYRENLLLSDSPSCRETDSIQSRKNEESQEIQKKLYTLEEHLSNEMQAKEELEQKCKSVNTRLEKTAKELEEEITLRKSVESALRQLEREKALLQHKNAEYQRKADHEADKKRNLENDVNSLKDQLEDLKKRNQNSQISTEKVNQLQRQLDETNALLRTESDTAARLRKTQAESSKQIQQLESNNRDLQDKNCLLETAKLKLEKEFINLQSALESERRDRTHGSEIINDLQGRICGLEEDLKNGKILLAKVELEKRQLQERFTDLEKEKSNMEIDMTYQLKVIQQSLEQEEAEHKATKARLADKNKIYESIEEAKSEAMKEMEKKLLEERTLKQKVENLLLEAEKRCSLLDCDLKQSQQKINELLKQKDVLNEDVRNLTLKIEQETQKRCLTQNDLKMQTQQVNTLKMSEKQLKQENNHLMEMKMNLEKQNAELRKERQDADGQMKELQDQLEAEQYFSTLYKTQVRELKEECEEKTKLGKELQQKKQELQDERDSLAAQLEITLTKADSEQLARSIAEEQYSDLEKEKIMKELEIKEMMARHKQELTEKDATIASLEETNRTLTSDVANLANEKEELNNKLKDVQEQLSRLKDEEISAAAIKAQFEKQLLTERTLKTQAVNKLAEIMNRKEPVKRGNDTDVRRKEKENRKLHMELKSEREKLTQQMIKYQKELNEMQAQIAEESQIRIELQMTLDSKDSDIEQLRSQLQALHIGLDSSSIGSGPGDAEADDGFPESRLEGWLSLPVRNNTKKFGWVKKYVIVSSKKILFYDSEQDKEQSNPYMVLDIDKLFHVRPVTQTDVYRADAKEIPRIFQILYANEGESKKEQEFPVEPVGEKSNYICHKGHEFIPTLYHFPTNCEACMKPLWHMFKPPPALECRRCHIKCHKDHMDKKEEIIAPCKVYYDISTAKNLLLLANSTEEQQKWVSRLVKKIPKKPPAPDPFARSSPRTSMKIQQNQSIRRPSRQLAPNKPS
Rho kinase 1, sequence (Q13464 whole entry): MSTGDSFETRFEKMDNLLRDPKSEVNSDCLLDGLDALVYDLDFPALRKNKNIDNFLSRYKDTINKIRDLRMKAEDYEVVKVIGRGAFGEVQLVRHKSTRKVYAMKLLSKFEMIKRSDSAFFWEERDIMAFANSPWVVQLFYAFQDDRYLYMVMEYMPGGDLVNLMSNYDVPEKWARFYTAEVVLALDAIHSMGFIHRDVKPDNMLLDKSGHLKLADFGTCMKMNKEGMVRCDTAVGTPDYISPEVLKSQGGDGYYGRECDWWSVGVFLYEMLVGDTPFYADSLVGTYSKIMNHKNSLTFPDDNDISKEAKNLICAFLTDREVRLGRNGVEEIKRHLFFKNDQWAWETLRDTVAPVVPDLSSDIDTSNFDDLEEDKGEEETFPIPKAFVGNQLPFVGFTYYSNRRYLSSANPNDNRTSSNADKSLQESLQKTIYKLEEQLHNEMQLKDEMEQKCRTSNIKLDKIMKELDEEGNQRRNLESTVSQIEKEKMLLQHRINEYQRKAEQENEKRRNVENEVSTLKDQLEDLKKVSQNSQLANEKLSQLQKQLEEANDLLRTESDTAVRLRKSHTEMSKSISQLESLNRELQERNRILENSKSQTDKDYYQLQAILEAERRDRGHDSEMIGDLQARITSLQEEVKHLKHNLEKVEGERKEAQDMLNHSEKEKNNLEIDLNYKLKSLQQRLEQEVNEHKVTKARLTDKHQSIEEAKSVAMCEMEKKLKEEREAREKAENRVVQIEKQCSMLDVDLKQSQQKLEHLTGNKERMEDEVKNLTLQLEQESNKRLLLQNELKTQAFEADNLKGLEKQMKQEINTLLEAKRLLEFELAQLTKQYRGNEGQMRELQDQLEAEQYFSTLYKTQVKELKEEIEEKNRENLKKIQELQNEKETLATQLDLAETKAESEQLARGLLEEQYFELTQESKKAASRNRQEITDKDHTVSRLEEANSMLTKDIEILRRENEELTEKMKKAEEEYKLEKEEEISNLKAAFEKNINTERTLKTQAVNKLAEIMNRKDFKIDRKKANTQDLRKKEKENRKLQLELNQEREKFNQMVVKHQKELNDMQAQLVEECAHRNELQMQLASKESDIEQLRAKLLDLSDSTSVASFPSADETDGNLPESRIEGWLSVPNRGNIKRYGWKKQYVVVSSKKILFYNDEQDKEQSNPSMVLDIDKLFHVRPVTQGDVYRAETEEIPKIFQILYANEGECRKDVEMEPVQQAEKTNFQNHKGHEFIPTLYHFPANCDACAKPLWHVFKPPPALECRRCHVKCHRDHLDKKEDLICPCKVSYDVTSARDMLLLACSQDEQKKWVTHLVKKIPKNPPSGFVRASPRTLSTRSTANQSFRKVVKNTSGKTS

| Structure (SMILES) | Ki (Rho kinase 2) | Ki (Rho kinase 1) |
| --- | --- | --- |
| CC1=C(C(=O)Nc2ccc3[nH]ncc3c2)C(c2ccc(F)cc2)n2ncc(C(=O)N3CCN(C)CC3)c2N1 (centres unmarked) [Example 91, 7-(4-fluorophenyl)-N-(1H-indazol-5-yl)-5-methyl-3-(4-methylpiperazine-1-carbonyl)-4,7-dihydropyrazolo[1,5-a]pyrimidine-6-carboxamide] | > 0.5 µM | > 0.5 µM |
| CC1=C(C(=O)Nc2ccc3[nH]ncc3c2)C(c2ccc(F)cc2)n2ncc(C(=O)NCCN(C)C)c2N1 (centres unmarked) [Example 92, N3-(2-(dimethylamino)ethyl)-7-(4-fluorophenyl)-N6-(1H-indazol-5-yl)-5-methyl-4,7-dihydropyrazolo[1,5-a]pyrimidine-3,6-dicarboxamide] | > 0.5 µM | > 0.5 µM |
| CC1=C(C(=O)Nc2ccc3[nH]ncc3c2)C(c2ccc(F)cc2)n2nc(C(=O)N3CCNCC3)cc2N1 (centres unmarked) [Example 93, 7-(4-fluorophenyl)-N-(1H-indazol-5-yl)-5-methyl-2-(piperazine-1-carbonyl)-4,7-dihydropyrazolo[1,5-a]pyrimidine-6-carboxamide] | < 0.05 µM | < 0.05 µM |
| CC1=C(C(=O)Nc2ccc3cnccc3c2)C(c2ccc(C(F)(F)F)c(F)c2)n2nc(CN3CCOCC3)cc2N1 (centres unmarked) [Example 95, 7-(3-fluoro-4-(trifluoromethyl)phenyl)-N-(isoquinolin-6-yl)-5-methyl-2-(morpholinomethyl)-4,7-dihydropyrazolo[1,5-a]pyrimidine-6-carboxamide] | < 0.05 µM | < 0.05 µM |
| COCCN(C)Cc1cc2n(n1)C(c1ccc(C(F)(F)F)c(F)c1)C(C(=O)Nc1ccc3cnccc3c1)=C(C)N2 (centres unmarked) [Example 98, 7-(3-fluoro-4-(trifluoromethyl)phenyl)-N-(isoquinolin-6-yl)-2-(((2-methoxyethyl)(methyl)amino)methyl)-5-methyl-4,7-dihydropyrazolo[1,5-a]pyrimidine-6-carboxamide] | < 0.05 µM | < 0.05 µM |

Results, then the molecule that gave them:

| Ki (Rho kinase 2) | Ki (Rho kinase 1) | Structure (SMILES) |
| --- | --- | --- |
| < 0.05 µM | < 0.05 µM | COC1CCN(Cc2cc3n(n2)C(c2ccc(C(F)(F)F)c(F)c2)C(C(=O)Nc2ccc4cnccc4c2)=C(C)N3)CC1 (centres unmarked) [Example 99, 7-(3-fluoro-4-(trifluoromethyl)phenyl)-N-(isoquinolin-6-yl)-2-((4-methoxypiperidin-1-yl)methyl)-5-methyl-4,7-dihydropyrazolo[1,5-a]pyrimidine-6-carboxamide] |
| < 0.05 µM | < 0.05 µM | COC1CN(Cc2cc3n(n2)C(c2ccc(C(F)(F)F)c(F)c2)C(C(=O)Nc2ccc4cnccc4c2)=C(C)N3)C1 (centres unmarked) [Example 100, 7-(3-fluoro-4-(trifluoromethyl)phenyl)-N-(isoquinolin-6-yl)-2-((3-methoxyazetidin-1-yl)methyl)-5-methyl-4,7-dihydropyrazolo[1,5-a]pyrimidine-6-carboxamide] |
| < 0.05 µM | < 0.05 µM | COCC1CN(Cc2cc3n(n2)C(c2ccc(C(F)(F)F)c(F)c2)C(C(=O)Nc2ccc4cnccc4c2)=C(C)N3)C1 (centres unmarked) [Example 101, 7-(3-fluoro-4-(trifluoromethyl)phenyl)-N-(isoquinolin-6-yl)-2-((3-(methoxymethyl)azetidin-1-yl)methyl)-5-methyl-4,7-dihydropyrazolo[1,5-a]pyrimidine-6-carboxamide] |
| < 0.05 µM | < 0.05 µM | CC1=C(C(=O)Nc2ccc3cnccc3c2)C(c2ccc(C(F)(F)F)c(F)c2)n2nc(CN3CCCC3)cc2N1 (centres unmarked) [Example 102, 7-(3-fluoro-4-(trifluoromethyl)phenyl)-N-(isoquinolin-6-yl)-5-methyl-2-(pyrrolidin-1-ylmethyl)-4,7-dihydropyrazolo[1,5-a]pyrimidine-6-carboxamide] |
| < 0.05 µM | < 0.05 µM | CC1=C(C(=O)Nc2ccc3cnccc3c2)C(c2ccc(C(F)(F)F)c(F)c2)n2nc(CN3CCC4(CCN(C)CC4)C3)cc2N1 (centres unmarked) [Example 103, 7-(3-fluoro-4-(trifluoromethyl)phenyl)-N-(isoquinolin-6-yl)-5-methyl-2-((8-methyl-2,8-diazaspiro[4.5]decan-2-yl)methyl)-4,7-dihydropyrazolo[1,5-a]pyrimidine-6-carboxamide] |
